Where two headings read alike, the source gives them in different places.
Assay: Measurement of 1-octanol/water partition coefficient (shake flask method)
Format: physicochemical
Method: The 1-octanol/water partition coefficient of the diethylene glycol isopropyl ether was measured by a shake flask method prescribed in JIS Z7260-107.
First, 10 g of ion-exchanged water and 10 g of 1-octanol were charged into a 50 mL separating funnel, and shaken at 25° C. to establish an equilibrium therebetween. Then, 1 g of diethylene glycol isopropyl ether was charged into the separating funnel, and the contents of the separating funnel were intimately shaken and subjected to centrifugal separation to separate the mixture into a 1-octanol phase and a water phase. The amounts of the diethylene glycol isopropyl ether dissolved in the respective phases were quantitatively determined by gas chromatography, thereby obtaining a partition coefficient of the diethylene glycol isopropyl ether between the two phases. The log P vale was determined as a common logarithm of the partition coefficient.
The same measurement procedure as in the above item (i) was repeated except for using a solvent to be measured in place of the diethylene glycol isopropyl ether (c1), thereby obtaining a 1-octanol/water partition coefficient of the solvent.

[1] = 1-octanol/water, shake flask method JIS Z7260-107, 25° C., log P as common logarithm, read-out: 1-octanol/water partition coefficient
[2] = shake flask method JIS Z7260-107, 25° C., log P as common logarithm
[3] = shake flask method JIS Z7260-107, 25° C., log P as common logarithm, read-out: 1-octanol/water partition coefficient

| SMILES | 1-octanol/water partition coefficient | logP [1] | 1-octanol/water partition coefficient [2] | logP [3] | logP |
| --- | --- | --- | --- | --- | --- |
| CCCCOCCOCCO [Diethylene glycol monobutyl ether] | ether (0.7) | – | – | – | – |
| CC(C)OCCOCCO [diethylene glycol isopropyl ether] | – | 0.04 | DEGPE (0.04)*^1 | – | – |
| OCCOCCO [diethylene glycol] | – | – | Diethylene glycol (−1.39) | -1.39 | – |
| CC(O)CO (stereo not shown) [propylene glycol] | Propylene glycol (−0.95) | – | – | – | -0.95 |
| COCCOCCO [diethylene glycol monomethyl ether, Diethylene glycol monomethyl ether] | – | – | DEGME (−0.85) | -0.85 | – |
| CCOCCOCCO [diethylene glycol monoethyl ether, Diethylene glycol monoethyl ether] | – | -0.31 | DEGEE (−0.31) | – | – |
| O=C1CCCN1 [2-pyrrolidone] | – | – | – | – | -0.63 |
| OCCOCCOCCO [triethylene glycol] | Triethylene glycol (−1.45) | – | – | – | -1.45 |
| OCC(O)CO [glycerol] | Glycerol (≧−1.5) | – | – | – | -1.5 |
